Experimental data taken from patent publication US6117841A, “Substituted peptidylamine calcium channel blockers” (Warner-Lambert Company, priority 1999, dated 2000).
Read-outs that look alike come from different tables or passages of the source.

Key:
[1] = biological target: T1, N-type Ca^2+ Channel (Homo sapiens, UniProt Q00975); assay: Measurement of N-type Ca2+ channel blocking potencies in IMR-32 cells using the fluorescent Ca2+ indicator Indo-1; format: cell-based; conditions: IMR-32 cells
T1 construct: host or cells: IMR-32 cells differentiated with dibutyryl cAMP and bromodeoxyuridine
T1 sequence (Q00975 whole entry): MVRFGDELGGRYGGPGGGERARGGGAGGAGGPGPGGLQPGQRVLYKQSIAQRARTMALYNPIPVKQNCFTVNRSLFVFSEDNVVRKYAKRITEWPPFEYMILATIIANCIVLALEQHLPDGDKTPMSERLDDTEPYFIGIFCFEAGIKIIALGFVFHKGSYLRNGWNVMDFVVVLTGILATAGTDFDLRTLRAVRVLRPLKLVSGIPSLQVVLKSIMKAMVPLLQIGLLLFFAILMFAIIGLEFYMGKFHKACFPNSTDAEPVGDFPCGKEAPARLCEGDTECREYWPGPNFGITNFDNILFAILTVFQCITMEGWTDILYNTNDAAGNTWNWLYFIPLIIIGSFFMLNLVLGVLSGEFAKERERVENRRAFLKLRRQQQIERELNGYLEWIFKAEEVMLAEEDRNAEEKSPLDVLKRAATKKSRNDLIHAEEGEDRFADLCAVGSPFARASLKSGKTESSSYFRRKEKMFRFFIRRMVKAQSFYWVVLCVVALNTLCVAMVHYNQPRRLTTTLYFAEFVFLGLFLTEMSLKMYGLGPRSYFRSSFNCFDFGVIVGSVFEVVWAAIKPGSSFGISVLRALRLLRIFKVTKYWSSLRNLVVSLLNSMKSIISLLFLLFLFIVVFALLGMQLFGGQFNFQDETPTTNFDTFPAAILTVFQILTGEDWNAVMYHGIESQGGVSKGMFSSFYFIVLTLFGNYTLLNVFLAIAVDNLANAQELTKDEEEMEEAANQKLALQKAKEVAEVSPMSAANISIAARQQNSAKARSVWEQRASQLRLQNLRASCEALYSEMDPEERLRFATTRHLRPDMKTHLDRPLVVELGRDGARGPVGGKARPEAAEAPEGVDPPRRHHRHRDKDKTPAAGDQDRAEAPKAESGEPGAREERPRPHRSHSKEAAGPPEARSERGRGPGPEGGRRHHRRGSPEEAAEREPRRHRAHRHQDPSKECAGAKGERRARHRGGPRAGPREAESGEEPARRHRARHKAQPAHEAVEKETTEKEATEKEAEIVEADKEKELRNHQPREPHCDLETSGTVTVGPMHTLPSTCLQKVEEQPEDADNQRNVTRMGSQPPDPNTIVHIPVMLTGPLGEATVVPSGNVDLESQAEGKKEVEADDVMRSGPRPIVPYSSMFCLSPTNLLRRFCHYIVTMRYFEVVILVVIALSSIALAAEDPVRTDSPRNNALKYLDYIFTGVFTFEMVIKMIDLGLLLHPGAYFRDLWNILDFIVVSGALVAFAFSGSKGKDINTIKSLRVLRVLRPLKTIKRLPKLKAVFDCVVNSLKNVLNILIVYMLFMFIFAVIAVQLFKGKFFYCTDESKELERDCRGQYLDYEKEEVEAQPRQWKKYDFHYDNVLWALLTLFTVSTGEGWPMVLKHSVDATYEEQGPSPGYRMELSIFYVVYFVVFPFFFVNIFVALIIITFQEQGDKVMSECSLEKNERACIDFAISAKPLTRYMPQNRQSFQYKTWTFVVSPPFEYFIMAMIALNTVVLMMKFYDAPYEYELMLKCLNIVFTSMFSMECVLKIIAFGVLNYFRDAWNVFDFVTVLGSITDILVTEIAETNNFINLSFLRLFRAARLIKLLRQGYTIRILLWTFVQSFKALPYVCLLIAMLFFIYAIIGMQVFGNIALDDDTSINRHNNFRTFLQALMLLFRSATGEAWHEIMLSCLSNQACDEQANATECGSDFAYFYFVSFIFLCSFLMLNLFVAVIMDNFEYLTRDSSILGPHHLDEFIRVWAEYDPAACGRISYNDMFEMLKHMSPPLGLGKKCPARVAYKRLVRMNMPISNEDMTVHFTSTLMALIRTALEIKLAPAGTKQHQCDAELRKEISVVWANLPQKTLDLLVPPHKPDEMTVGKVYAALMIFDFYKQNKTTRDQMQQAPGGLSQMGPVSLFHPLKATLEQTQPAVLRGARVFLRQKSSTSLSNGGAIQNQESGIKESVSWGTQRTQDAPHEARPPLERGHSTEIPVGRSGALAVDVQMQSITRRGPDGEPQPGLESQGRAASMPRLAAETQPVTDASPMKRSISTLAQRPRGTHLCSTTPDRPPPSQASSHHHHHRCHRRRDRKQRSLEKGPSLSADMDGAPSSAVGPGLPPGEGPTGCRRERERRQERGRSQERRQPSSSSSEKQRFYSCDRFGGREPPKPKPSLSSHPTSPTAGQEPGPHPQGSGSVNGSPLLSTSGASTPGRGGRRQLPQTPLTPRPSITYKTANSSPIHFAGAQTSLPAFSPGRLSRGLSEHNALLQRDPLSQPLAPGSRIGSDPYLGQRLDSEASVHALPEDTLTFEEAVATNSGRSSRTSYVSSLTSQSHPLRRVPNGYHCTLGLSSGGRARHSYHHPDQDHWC
T1 sequence (P54284 whole entry partner): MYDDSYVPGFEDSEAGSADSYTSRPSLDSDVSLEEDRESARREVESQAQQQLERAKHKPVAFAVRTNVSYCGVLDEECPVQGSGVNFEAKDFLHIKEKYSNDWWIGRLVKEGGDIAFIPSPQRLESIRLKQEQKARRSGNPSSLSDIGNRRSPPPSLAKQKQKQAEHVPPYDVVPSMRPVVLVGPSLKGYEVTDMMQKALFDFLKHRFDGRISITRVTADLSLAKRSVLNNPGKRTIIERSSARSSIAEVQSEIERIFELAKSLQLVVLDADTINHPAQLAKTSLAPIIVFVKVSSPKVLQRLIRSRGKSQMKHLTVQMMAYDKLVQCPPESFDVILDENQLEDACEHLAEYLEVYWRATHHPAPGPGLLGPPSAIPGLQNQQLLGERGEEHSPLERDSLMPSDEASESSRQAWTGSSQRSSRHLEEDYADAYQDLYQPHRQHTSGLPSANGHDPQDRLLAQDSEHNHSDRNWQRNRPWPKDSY
T1 sequence (P54289 25-946 partner limits assumed): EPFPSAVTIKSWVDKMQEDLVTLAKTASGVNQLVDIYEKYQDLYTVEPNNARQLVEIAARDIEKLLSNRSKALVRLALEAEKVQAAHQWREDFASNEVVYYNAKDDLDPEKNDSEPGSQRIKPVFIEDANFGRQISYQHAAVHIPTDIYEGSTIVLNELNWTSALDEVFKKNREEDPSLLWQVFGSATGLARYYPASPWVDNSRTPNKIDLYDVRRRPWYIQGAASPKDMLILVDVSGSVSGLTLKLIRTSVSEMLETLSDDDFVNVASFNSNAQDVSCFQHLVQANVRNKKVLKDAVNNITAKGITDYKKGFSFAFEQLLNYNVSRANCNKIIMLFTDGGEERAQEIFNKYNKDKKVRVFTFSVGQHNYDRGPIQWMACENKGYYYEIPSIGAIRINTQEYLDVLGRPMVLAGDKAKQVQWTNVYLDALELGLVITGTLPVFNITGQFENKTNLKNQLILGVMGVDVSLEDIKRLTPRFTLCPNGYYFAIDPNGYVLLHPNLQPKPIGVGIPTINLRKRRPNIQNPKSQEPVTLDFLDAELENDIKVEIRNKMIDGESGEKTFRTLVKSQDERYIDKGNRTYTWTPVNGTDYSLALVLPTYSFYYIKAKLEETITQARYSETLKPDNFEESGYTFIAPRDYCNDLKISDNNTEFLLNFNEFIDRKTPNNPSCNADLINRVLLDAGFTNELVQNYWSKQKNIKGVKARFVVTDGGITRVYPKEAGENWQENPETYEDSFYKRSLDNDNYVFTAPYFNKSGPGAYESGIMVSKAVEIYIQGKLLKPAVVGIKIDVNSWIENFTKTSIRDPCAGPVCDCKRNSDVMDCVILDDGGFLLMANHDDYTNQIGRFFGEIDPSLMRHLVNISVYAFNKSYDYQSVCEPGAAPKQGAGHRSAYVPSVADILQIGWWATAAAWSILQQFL
T1 sequence (P54289 947-1103 partner limits assumed): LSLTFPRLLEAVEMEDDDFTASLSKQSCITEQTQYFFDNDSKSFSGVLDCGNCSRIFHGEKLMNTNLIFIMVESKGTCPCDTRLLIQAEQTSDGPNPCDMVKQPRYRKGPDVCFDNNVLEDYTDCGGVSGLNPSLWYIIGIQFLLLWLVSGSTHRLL
Outline: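 IMR-32 cells were differentiated 7–13 days (1 mM dibutyryl cAMP, 2.5 µM BrdU) and Indo-1-loaded. They were preincubated 10 min at 30 °C with compound and 5 µM nitrendipine in HEPES/Tris pH 7.4 HBSS with 0.5% BSA, then KCl/CaCl2-depolarized. The peak-minus-basal 400/490 nm emission ratio gave IC50 by four-parameter logistic fit.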

[2] = test system: DBA/2 mice; assay: In vivo anticonvulsant activity, sound-induced tonic seizures in DBA/2 mice; conditions: tested 15 or 45 minutes after injection; for DBA/2 mice % Protection dose @ 30 mg/kg: 30 mg/kg intravenous
Experimental: A compound of the present invention was dissolved in water using 10% (weight/volume) Emulphor (GAF Corp., Wayne, N.J.) surfactant. Substances were administered by intravenous injection into the retro-orbital venous sinus. All testing was performed 15 minutes or 45 minutes after drug injection. All the male mice, 3-4 weeks old were obtained from Jackson Laboratories Bar Harbour, Me. Immediately before anticonvulsant testing, mice were placed upon a wire mesh, 4 inches square suspended from a steel rod. The square was slowly inverted through 180 degrees and mice observed for 30 seconds. Any mouse falling from the wire mesh was scored as ataxia.
Mice were placed into an enclosed acrylic plastic chamber (21 cm height, approximately 30 cm diameter) with a high-frequency speaker (4 cm diameter) in the center of the top lid. An audio signal generator (Protek model B-810) was used to produce a continuous sinusoidal tone that was swept linearly in frequency between 8 kHz and 16 kHz once each 10 msec. The average sound pressure level (SPL) during stimulation was approximately 100 dB at the floor of the chamber. Mice were placed within the chamber and allowed to acclimatize for 1 minute. DBA/2 mice in the vehicle-treated group responded to the sound stimulus (applied until tonic extension occurred, or for a maximum of 60 sec) with a characteristic seizure sequence consisting of wild running followed by clonic seizures, and later by tonic extension, and finally by respiratory arrest and death in 80% or more of the mice. In vehicle-treated mice, the entire sequence of seizures to respiratory arrest lasts approximately 15-20 seconds.
The incidence of all the seizure phases in the drug-treated and vehicle-treated mice was recorded, and the occurrence of tonic seizures were used for calculatine anticonvulsant ED50 values by probit analysis. Mice were used only once for testing at each time and dose point.

[3] = K+ depolarization, 5 μM nitrendipine to block L-type channels, read-out: IMR 32 IC50
[4] = 5 μM nitrendipine, Examples 116-140, read-out: IMR 32% of Blockade @

`CC(C)CCN(C)[C@@H](CC(C)C)C(=O)N[C@H](Cc1ccc(OCc2ccccc2)cc1)C(=O)NC(C)(C)C` (relative stereo) [Example 84, [S-(R*,S*)]-4-Methyl-2-[methyl-(3-methyl-butyl)-amino]-pentanoic acid [2-(4-benzyloxy-phenyl)-1-tert-butylcarbamoyl-ethyl]-amide] was tested, and the IC50 [1, 3] was 370 nM and the “DBA/2 mice % Protection (10 mg/kg)” value ([2]; 10 mg/kg intravenous) was 100%.
`CC(C)C[C@@H](C(=O)N[C@@H](Cc1ccc(OCc2ccccc2)cc1)C(=O)NC(C)(C)C)N(C)CC1CCCCC1` (relative stereo) [Example 25, [S-(R*,R*)]-2-(Cyclohexylmethyl-methyl-amino)-4-methyl-pentanoic acid [2-(4-benzyloxy-phenyl)-1-tert-butylcarbamoyl-ethyl]-amide] was tested, and the IC50 [1, 3] was 670 nM and the “DBA/2 mice % Protection dose @ 30 mg/kg” value [2] was 100%.
In the case of `CC(C)CC(NC(C)C)C(=O)NC(Cc1ccc(OCc2ccccc2)cc1)C(=O)OC(C)(C)C` (stereo not drawn) [Example 92, [S-(R*,R*)]-3-(4-Benzyloxy-phenyl)-2-(2-isopropylamino4-methyl-pentanoylamino)-propionic acid tert-butyl ester], the IC50 [1, 3] is reported as 800 nM and the “DBA/2 mice % Protection dose @ 30 mg/kg” value [2] is reported as 100%.
`CC(C)CCN(C)[C@@H](CC(C)C)C(=O)N[C@@H](Cc1ccc(OCc2ccccc2)cc1)C(=O)NC(C)(C)CO` (relative stereo) [Example 116, [S-(R*,R*)]4-Methyl-2-[methyl-(3-methylbutyl)-amino]-pentanoic acid [2-(4-benzyloxy-phenyl)-1-(2-hydroxy-1,1-dimethyl-ethylcarbamoyl)-ethyl]-amide] showed an IC50 [1, 4] of 1400 nM.
With `CCC[C@@H](C(=O)N[C@@H](Cc1ccc(OCc2ccccc2)cc1)C(=O)NC(C)(C)C)N(C)CCC(C)C` (relative stereo) [Example 46, [S-(R*,R*)]-4-Methyl-2-[methyl-(3-methyl-butyl)-amino]-butyric acid [2-(4-benzyloxy-phenyl)-1-tert-butylcarbamoyl-ethyl]-amide] the “IMR 32 % of Blockade @ 0.3 μM” value ([1]; 0.3 μM, 5 μM nitrendipine) was 36% and the “IMR 32 % of Blockade @ 3 μM” value ([1]; 3 μM, 5 μM nitrendipine) was 74%.
`CC(C)CC(C(=O)NC(Cc1ccc(OCc2ccccc2)cc1)C(=O)NCCN1CCOCC1)N1CCOCC1` (stereo not drawn) [Example 119, [S-(R*,R*)]-4-Methyl-2-morpholin-4-yl-pentanoic acid [2-(4-benzyloxy-phenyl)-1-(2-morpholin-4-yl-ethylcarbamoyl)-ethyl]-amide] was tested, and the IC50 [1, 4] was 18000 nM.
`CCC(CO)(CO)NC(=O)C(Cc1ccc(OCc2ccccc2)cc1)NC(=O)C(CC(C)C)NC1CCOCC1` (stereo not drawn) [Example 74, [S-(R*,R*)]-4-Methyl-2-(tetrahydro-pyran-4-ylamino)-pentanoic acid [2-(4-benzyloxy-phenyl)-1-(1,1-bis-hydroxymethyl-propylcarbamoyl)-ethyl]-amide] was tested, and the IC50 [1, 3] was 2600 nM.
With `CC(C)C[C@@H](C(=O)N[C@@H](Cc1ccc(OCc2ccccc2)cc1)C(=O)N1CCCCC1)N(C)C1CCCCC1` (relative stereo) [Example 20, [S-(R*,R*)]-2-(Cyclohexyl-methyl-amino)-4-methyl-pentanoic acid [2-(4-benzyloxy-phenyl)-1-(piperidine-1-carbonyl)-ethyl]-amide] the “IMR 32 % of Blockade @ 1 μM” value ([1]; 5 μM nitrendipine) was 65% and the “IMR 32 % of Blockade @ 10 μM” value ([1]; 5 μM nitrendipine) was 87%.
For `CC(C)C[C@@H](C(=O)N[C@@H](Cc1ccc(OCc2ccccc2)cc1)C(=O)NC(C)(C)C)N1CCOCC1` (relative stereo) [Example 94, [S-(R*,R*)]-4-Methyl-2-morpholin-4-yl-pentanoic acid [2-(4-benzyloxy-phenyl)-1-tert-butylcarbamoyl-ethyl]-amide], the “IMR 32 % of Blockade @ 1 μM” value ([1]; 5 μM nitrendipine) was 24%.
With `CC(C)C[C@@H](C(=O)N[C@@H](Cc1ccc(OCc2ccccc2)cc1)C(=O)NC(C)(C)C)N(C)CCC(C)(C)C` (relative stereo) [Example 36, [S-(R*,R*)]-2-[(3,3-Dimethyl-butyl)-methyl-amino]-4-methyl-pentanoic acid [2-(4-benzyloxy-phenyl)-1-tert-butylcarbamoyl-ethyl]-amide] the IC50 [1, 3] was 400 nM.
With `CC(C)C[C@@H](C(=O)N[C@@H](Cc1ccc(OCc2ccccc2)cc1)C(=O)NC(C)(C)C)N(C)C(C)C` (relative stereo) [Example 86, [S-(R*,R*)]-2-(Isopropyl-methyl-amino)-4-methyl-pentanoic acid [2-(4-benzyloxy-phenyl)-1-tert-butylcarbamoyl-ethyl]-amide] the IC50 [1, 3] was 2800 nM.
`CC(C)C[C@@H](C(=O)N[C@@H](Cc1ccc(OCc2ccccc2)cc1)C(=O)NCCN1CCCCC1)N(C)CC1CCCCC1` (relative stereo) [Example 27, [S-(R*,R*)]-2-(Cyclohexylmethyl-methyl-amino)-4-methyl-pentanoic acid [2-(4-benzyloxy-phenyl)-1-(2-piperidin-1-yl-ethylcarbamoyl)-ethyl]-amide] gave an IC50 [1, 3] of 1300 nM.
Work on `CC(C)=CCN[C@@H](CC(C)C)C(=O)N[C@@H](Cc1ccc(OCc2ccccc2)cc1)C(=O)N1CCN(Cc2ccccc2)CC1` (relative stereo) [Example 53, [S-(R*,R*)]-4-Methyl-2-(3-methyl-but-2-enylamino)-pentanoic acid [1-(4-benzyloxy-benzyl)-2-(4-benzyl-piperazin-1-yl)-2-oxo-ethyl]-amide] yielded an IC50 [1, 3] of 700 nM.
Work on `CCCCN(C)[C@@H](CC(C)C)C(=O)N[C@@H](Cc1ccc(OCc2ccccc2)cc1)C(=O)NC(C)(C)C` (relative stereo) [Example 41, [S-(R*,R*)]-2-(Butyl-methyl-amino)-4-methyl-pentanoic acid [2-(4-benzyloxy-phenyl)-1-tert-butylcarbamoyl-ethyl]-amide] yielded an IC50 [1, 3] of 280 nM.
With `CC(C)C[C@@H](C(=O)N[C@@H](Cc1ccc(OCc2ccccc2)cc1)C(=O)NC(C)(C)C)N1CCCCC1` (relative stereo) [Example 99, [S-(R*,R*)]-4-Methyl-2-piperidin-1-yl-pentanoic acid [2-(4-benzyloxy-phenyl)-1-tert-butylcarbamoyl-ethyl]-amide] the IC50 [1, 3] was 1400 nM.
In the case of `CC(C)CCN(C)C(CC(C)C)C(=O)NC(Cc1ccc(OCc2ccccc2)cc1)C(=O)N1CCN(Cc2ccccc2)CC1` (stereo not drawn) [Example 10, [S-(R*,R*)]4-Methyl-2-[methyl-(3-methyl-butyl)-amino]-pentanoic acid [1-(4-benzyloxy-benzyl)-2-(4-benzyl-piperazin-1-yl)-2-oxo-ethyl]-amide], the “IMR 32 % of Blockade @ 1 μM” value ([1]; 5 μM nitrendipine) is reported as 61% and the “IMR 32 % of Blockade @ 10 μM” value ([1]; 5 μM nitrendipine) is reported as 80%.
Work on `CC(C)CC(C(=O)NC(Cc1ccc(OCc2ccccc2)cc1)C(=O)NCCCn1ccnc1)N1CCOCC1` (stereo not drawn) [Example 121, [S-(R*,R*)]-4-Methyl-2-morpholin-4-yl-pentanoic acid [2-(4-benzyloxy-phenyl)-1-(3-imidazol-1-yl-propylcarbamoyl)-ethyl]-amide] yielded an IC50 [1, 4] of 14000 nM.
For `CC(C)C[C@@H](C(=O)N[C@@H](Cc1ccc(OCc2ccccc2)cc1)C(=O)N1CCN(Cc2ccccc2)CC1)N(C)C1CCCCC1` (relative stereo) [Example 22, [S-(R*,R*)]-2-(Cyclohexyl-methyl-amino)-4-methyl-pentanoic acid [1-(4-benzyloxy-benzyl)-2-(4-benzyl-piperazin-1-yl)-2-oxo-ethyl]-amide], the “IMR 32 % of Blockade @ 1 μM” value ([1]; 5 μM nitrendipine) was 57% and the “IMR 32 % of Blockade @ 10 μM” value ([1]; 5 μM nitrendipine) was 87%.
With `CC(C)C[C@@H](C(=O)N[C@@H](Cc1ccc(OCc2ccccc2)cc1)C(=O)NC(C)(C)C)N(C)C1CCC(C(C)(C)C)CC1` (relative stereo) [Example 38, [S-(R*,R*)]-2-[(4-tert-Butyl-cyclohexyl)-methyl-amino]-4-methyl-pentanoic acid [2-(4-benzyloxy-phenyl)-1-tert-butylcarbamoyl-ethyl]-amide] the “IMR 32 % of Blockade @ 1 μM” value ([1]; 5 μM nitrendipine) was 23%.
With `CN[C@@H](CC(C)C)C(=O)N[C@@H](Cc1ccc(OCc2ccccc2)cc1)C(=O)NC(C)(C)C` (relative stereo) [Example 35, [S-(R*,R*)]-4-Methyl-2-methylamino-pentanoic acid [2-(4-benzyloxy-phenyl)-1-tert-butylcarbamoyl-ethyl]-amide] the IC50 [1, 3] was 2300 nM.
`CC(C)CC(NC1CCOCC1)C(=O)NC(Cc1ccc(OCc2ccccc2)cc1)C(=O)NC(C)(C)CO` (stereo not drawn) [Example 73, [S-(R*,R*)]-4-Methyl-2-(tetrahydro-pyran4-ylamino)-pentanoic acid [2-(4-benzyloxy-phenyl)-1-(2-hydroxy-1,1-dimethyl-ethylearbamoyl)-ethyl]-amide] showed an IC50 [1, 3] of 2700 nM.
For `CC(C)C[C@@H](C(=O)N[C@@H](Cc1ccc(OCc2ccccc2)cc1)C(=O)NC1CCN(Cc2ccccc2)C1)N1CCOCC1` (relative stereo) [Example 69, [S-(R*,R*)]-4-Methyl-2-morpholin-4-yl-pentanoic acid [2-(4-benzyloxy-phenyl)-1-(1-benzyl-pyrrolidin-3-ylcarbamoyl)-ethyl]-amide], the IC50 [1, 3] was 1300 nM.
